Measured values taken from the NIST ThermoML archive (doi:10.1016/j.fluid.2017.12.001).
± gives the expanded uncertainty stated by the source.

Key:
[1] = xn = mol fraction of the nth substance listed; conditions: 100.9 kPa, Liquid, Concentric cylinders viscometry, x2 = 0
[2] = 101.33 kPa, Liquid; for viscosity: Concentric cylinders viscometry; for mass density: Vibrating tube method; for speed of sound: Single path-length method

O [water] + CCCC(=O)[O-].CC[NH2+]CC
[1]
Conditions | viscosity [mPa·s]
283.15 K | 1.31 ± 0.02
285.65 K | 1.23 ± 0.02
288.15 K | 1.15 ± 0.02
290.65 K | 1.08 ± 0.02
293.15 K | 1.02 ± 0.02
295.65 K | 0.96 ± 0.02
298.15 K | 0.9 ± 0.02
300.65 K | 0.85 ± 0.02
303.15 K | 0.8 ± 0.02
305.65 K | 0.76 ± 0.02
308.15 K | 0.72 ± 0.02
310.65 K | 0.69 ± 0.02
313.15 K | 0.65 ± 0.02
315.65 K | 0.62 ± 0.02
318.15 K | 0.59 ± 0.02
320.65 K | 0.57 ± 0.02
323.15 K | 0.54 ± 0.02
325.65 K | 0.51 ± 0.02
328.15 K | 0.49 ± 0.02
330.65 K | 0.47 ± 0.02
333.15 K | 0.45 ± 0.02
335.65 K | 0.43 ± 0.02
338.15 K | 0.41 ± 0.02
340.65 K | 0.39 ± 0.02
343.15 K | 0.37 ± 0.02

O [water]
[2]
Conditions | mass density [kg/m3] | speed of sound [m/s] | viscosity [mPa·s]
283 K | 999.72 ± 0.05 | – | 1.31 ± 0.01
286 K | 999.46 ± 0.05 | 1457 ± 1 | 1.23 ± 0.01
288 K | – | – | 1.15 ± 0.01
291 K | 998.69 ± 0.05 | 1475 ± 1 | 1.08 ± 0.01
293 K | – | – | 1.02 ± 0.01
296 K | 997.66 ± 0.05 | 1490 ± 1 | 0.96 ± 0.01
298 K | – | – | 0.9 ± 0.01
301 K | 996.37 ± 0.05 | 1503 ± 1 | 0.85 ± 0.01
303 K | – | – | 0.8 ± 0.01
306 K | 994.87 ± 0.05 | 1515 ± 1 | 0.76 ± 0.01
308 K | – | – | 0.72 ± 0.01
311 K | 993.15 ± 0.06 | 1525 ± 1 | 0.69 ± 0.01
313 K | – | 1529 ± 1 | 0.65 ± 0.01
316 K | 991.23 ± 0.06 | 1533 ± 1 | 0.62 ± 0.01
318 K | – | 1537 ± 1 | 0.59 ± 0.01
321 K | 989.15 ± 0.06 | 1540 ± 1 | 0.57 ± 0.01
323 K | 988.03 ± 0.06 | – | 0.54 ± 0.01
